Test results from patent publication US4740233A, “Substituted 1,2,4-triazolo[1,5-a]-pyrimidine-2-sulfonamides and compositions and methods of controlling undesired vegetation and suppressing the nitrification of ammonium nitrogen in soil” (The Dow Chemical Company, priority 1986, dated 1988).

Tests used:
Experiment in all cases: Preemergent control of plant species
wheat = assay type: in vivo, Triticum aestivum; settings: Triticum aestivum, pre-emergence, 336 h; 0.25 lb/acre; read-out: percent preemergent control
Summary of the method: (§1)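 Test compositions were applied evenly to the surface of freshly seeded soil beds and kept under greenhouse conditions for two weeks. Percent control reflects growth reduction compared with water-treated beds of the same species.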

barnyardgrass = assay type: in vivo, Echinochloa crusgalli; settings: Echinochloa crus-galli, pre-emergence, 336 h; 0.25 lb/acre; read-out: percent preemergent control
Summary of the method: as §1

yellow foxtail = assay type: in vivo, Setaria lutescens; settings: Setaria, pre-emergence, 336 h; 0.25 lb/acre; read-out: percent preemergent control
Summary of the method: as §1

yellow nutsedge = assay type: in vivo, Cyperus esculentus; settings: Cyperus, pre-emergence, 336 h; 0.25 lb/acre; read-out: percent preemergent control
Summary of the method: as §1

rape = assay type: in vivo, Brassica napus; settings: Brassica napus, pre-emergence, 336 h; 0.25 lb/acre; read-out: percent preemergent control
Summary of the method: as §1

cotton = assay type: in vivo, Gossypium spp.; settings: Gossypium hirsutum, pre-emergence, 336 h; 0.25 lb/acre; read-out: percent preemergent control
Summary of the method: as §1

jimsonweed = assay type: in vivo, Datura stramonium; settings: Datura stramonium, pre-emergence, 336 h; 0.25 lb/acre; read-out: percent preemergent control
Summary of the method: as §1

rice = assay type: in vivo, Oryza sativa; settings: Oryza sativa, pre-emergence, 336 h; 0.25 lb/acre; read-out: percent preemergent control
Summary of the method: as §1

johnson grass = assay type: in vivo, Sorghum halepense; settings: Sorghum halepense, pre-emergence, 336 h; 0.25 lb/acre; read-out: percent preemergent control
Summary of the method: as §1

sugar beet = assay type: in vivo, Beta saccharifera; settings: Beta vulgaris, pre-emergence, 336 h; 0.25 lb/acre; read-out: percent preemergent control
Summary of the method: as §1

sorghum = assay type: in vivo, Sorghum vulgare; settings: Sorghum, pre-emergence, 336 h; 0.25 lb/acre; read-out: percent preemergent control
Summary of the method: as §1

wild oats = assay type: in vivo; settings: Avena fatua, pre-emergence, 336 h; 0.25 lb/acre; read-out: percent preemergent control
Summary of the method: as §1

soybean = assay type: in vivo, Glycine max.; settings: Glycine max, pre-emergence, 336 h; 0.25 lb/acre; read-out: percent preemergent control
Summary of the method: as §1

velvetleaf = assay type: in vivo, Abutilon theophrasti; settings: Abutilon theophrasti, pre-emergence, 336 h; 0.25 lb/acre; read-out: percent preemergent control
Summary of the method: as §1

corn = assay type: in vivo, Zea mays; settings: Zea mays, pre-emergence, 336 h; 0.25 lb/acre; read-out: percent preemergent control
Summary of the method: as §1

annual morning glory = assay type: in vivo, Ipomoea spp.; settings: Ipomoea, pre-emergence, 336 h; 0.25 lb/acre; read-out: percent preemergent control
Summary of the method: as §1

Row | SMILES | plant injury at 280.212 g/ha (wheat) | pest or weed control at 280.212 g/ha (barnyardgrass) | pest or weed control at 280.212 g/ha (yellow foxtail) | pest or weed control at 280.212 g/ha (yellow nutsedge) | plant injury at 280.212 g/ha (rape) | plant injury at 280.212 g/ha (cotton) | pest or weed control at 280.212 g/ha (jimsonweed) | plant injury at 280.212 g/ha (rice) | pest or weed control at 280.212 g/ha (johnson grass) | plant injury at 280.212 g/ha (sugar beet) | plant injury at 280.212 g/ha (sorghum) | pest or weed control at 280.212 g/ha (wild oats) | plant injury at 280.212 g/ha (soybean) | pest or weed control at 280.212 g/ha (velvetleaf) | plant injury at 280.212 g/ha (corn) | pest or weed control at 280.212 g/ha (annual morning glory)
1 | Cc1ccn2nc(S(=O)(=O)N(C(=O)C=Cc3ccccc3)c3c(F)cccc3F)nc2n1 [Compound 293] | 60% | 100% | 100% | 100% | 100% | 100% | 100% | 90% | 95% | 100% | 100% | 95% | 10% | 100% | 60% | 70%
2 | COc1nc2nc(S(=O)(=O)Nc3c(F)cccc3F)nn2cc1C [Compound 214] | 100% | 100% | 100% | 100% | 100% | 100% | 100% | 100% | 100% | 100% | 100% | 100% | 100% | 100% | 100% | 100%
3 | Cc1ccn2nc(S(=O)(=O)N(C(=O)CCCl)c3c(F)cccc3F)nc2n1 [Compound 282] | 70% | 70% | 100% | 100% | 100% | 100% | 100% | 100% | 100% | 100% | 100% | 100% | 50% | 100% | 95% | 80%
4 | Cc1ccnc2nc(S(=O)(=O)Nc3c(F)cccc3Cl)nn12 [Compound 181] | 0% | 20% | 80% | 50% | 100% | 98% | 98% | 30% | 60% | 98% | 95% | 40% | 80% | 98% | 0% | 80%
5 | Cc1cccc([N+](=O)[O-])c1NS(=O)(=O)c1nc2nccc(C)n2n1 [Compound 184] | 0% | 0% | 80% | 80% | 98% | 100% | 98% | 0% | 30% | 100% | 95% | 0% | 50% | 100% | 0% | 80%
